The text below walks through data of US20260176245A1, “MODULATORS OF SORTILIN ACTIVITY” (Vesper Bio ApS, priority 2022, published 2026).

In this assay the target is T1, Human (6-His) Sortilin (Homo sapiens, UniProt Q99523).
T1 construct: 6-His; purchased RnD Systems
T1 sequence (Q99523 78-755 limits assumed): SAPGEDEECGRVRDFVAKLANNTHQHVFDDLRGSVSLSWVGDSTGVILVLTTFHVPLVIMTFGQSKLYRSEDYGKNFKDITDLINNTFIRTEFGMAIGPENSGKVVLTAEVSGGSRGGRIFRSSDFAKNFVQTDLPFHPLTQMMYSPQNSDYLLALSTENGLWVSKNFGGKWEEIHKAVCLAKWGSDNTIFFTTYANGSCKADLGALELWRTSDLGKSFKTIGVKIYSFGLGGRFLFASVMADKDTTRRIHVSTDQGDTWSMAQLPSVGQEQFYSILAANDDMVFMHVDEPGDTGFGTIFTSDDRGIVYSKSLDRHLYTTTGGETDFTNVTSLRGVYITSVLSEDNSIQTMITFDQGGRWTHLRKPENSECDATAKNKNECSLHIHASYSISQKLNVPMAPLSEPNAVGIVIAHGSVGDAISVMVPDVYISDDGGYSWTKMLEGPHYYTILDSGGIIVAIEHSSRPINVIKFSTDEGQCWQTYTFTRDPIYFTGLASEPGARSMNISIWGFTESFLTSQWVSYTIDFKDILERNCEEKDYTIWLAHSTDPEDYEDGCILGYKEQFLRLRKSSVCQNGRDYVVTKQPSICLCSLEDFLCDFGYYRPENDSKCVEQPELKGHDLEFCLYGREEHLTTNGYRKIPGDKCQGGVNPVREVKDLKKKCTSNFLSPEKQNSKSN
Nature of the assay: Human Sortilin GCI (Grating-Coupled Interferometry) binding assay. The following applies: Creoptix WAVE-RAPID, single concentration, immobilised Human (6-His) Sortilin, 1:1 kinetic binding model; read-out: h-Sortilin GCI KD. The procedure:
The exemplified compounds of the invention were tested in a Grating-Coupled Interferometry (GCI) Sortilin binding assay. The Equilibrium dissociation constant (KD) is a measure of the propensity of a complex (i.e: a ligand and receptor) to dissociate and is used to describe the affinity of an interaction between the constituents of the complex (i.e: a ligand and receptor). The skilled person will recognise that the lower the KD value, the less of the compound needed to achieve the desired effect, and as a result, the chances of undesirable off-target effects are reduced.
Compound affinity was determined by measuring the association and dissociation of compounds to Human (6-His) Sortilin (RnD Systems) using a Creoptix Wave instrument (Creoptix-Malvern Panalytical). Both Human (6-His) Sortilin immobilisation and compound evaluation were performed in HBS-N running buffer: 10 mM HEPES pH 7.4, 150 mM NaCl, 1% DMSO-Cytiva which was filtered and degassed for 15 minutes before use.
A 4PCH WAVEchip (Creoptix-Malvern Panalytical) was conditioned prior to immobilisation using 0.2×HBS-N running buffer with 0.1 M Borate pH 9.0, 1 M NaCl (Xantec Bioanalytics) injected across all flow cells. A buffer exchange was performed to 1×HBS-N running buffer and Human (6-His) Sortilin was immobilised in pH 5.0 Acetate solution (Cytiva) via amine coupling following EDC/NHS (Cytiva) surface activation and then passivated via injection of 50 mM Tris pH 7.4.
Compounds were tested in ‘WAVE-RAPID’ assays at a single concentration (usually: 1 μM, 10 µM or 100 µM) in time-response format (short pulses of increasing duration) using either ‘Weak-Binders’ (Settings: 400 μl/min flow rate, 40 Hz acquisition rate, 5 seconds association time and 20 seconds dissociation time) or ‘Intermediate Binders’ (Settings: 100 μl/min flow rate, 10 Hz acquisition rate, 25 seconds association time and 300 seconds dissociation time) settings. Which was deemed most appropriate was based upon the affinity and kinetics of the compound tested.
DMSO calibration was performed as per manufacturers requirements by injection of running buffer containing DMSO 0.5% above that of the running buffer DMSO (1.5% in that instance) every 20 cycles. All data was double referenced (blank and reference-channel subtracted) with KD values calculated by fitting to a ‘1:1 kinetic’ binding model using ‘WAVEcontrol’ software (Creoptix—Malvern Panalytical).
As to `CC(=O)N[C@@H](C)C(=O)N[C@@](C)(CCC(C)(C)C)C(=O)O` [Example 2, (2S)-2-[(2S)-2-acetamidopropanamido]-2,5,5-trimethylhexanoic acid], the Kd (usually the constant that tells how readily two partners part at equilibrium) was determined as 4.64 µM. Under `CC(=O)NCC(=O)N[C@@](C)(CCC(C)(C)C)C(=O)O` [Example 1, 2-(2-acetamidoacetamido)-2,5,5-trimethylhexanoic acid] stands 12.4 µM. To `CC[C@H](C)[C@H](NC(C)=O)C(=O)N[C@@](C)(CCC(C)(C)C)C(=O)O` [Example 3, (2S)-2-[(2S,3S)-2-acetamido-3-methylpentanamido]-2,5,5-trimethylhexanoic acid] belongs 1.3 µM; to `CC(=O)N[C@@H](Cc1ccccc1)C(=O)N[C@@](C)(CCC(C)(C)C)C(=O)O` [Example 4, (2S)-2-[(2S)-2-acetamido-3-phenylpropanamido]-2,5,5-trimethylhexanoic acid], 2 µM.
